Data published in ChEMBL document CHEMBL4002566, “S-substituted 3,5-dinitrophenyl 1,3,4-oxadiazole-2-thiols and tetrazole-5-thiols as highly efficient antitubercular agents” (Eur J Med Chem, 2017).
Converted amounts (≈) assume the structure as drawn.

Experiments:
[1] = system: Mycobacterium tuberculosis; assay: Antimycobacterial activity against Mycobacterium tuberculosis H37Rv expressing GFP after 7 days; type: functional; details: 168 h
[2] = system: Mycobacterium tuberculosis; assay: Antimycobacterial activity against Mycobacterium tuberculosis H37Rv after 7 days by resazurin reduction microplate assay; type: functional; details: 168 h

COc1ccc(OCCNC(=O)c2cc([N+](=O)[O-])cc([N+](=O)[O-])c2)cc1
MIC [1]: 0.2 µM (≈ 0.0723 µg/mL)

Cc1nc2cc(Br)cc([N+](=O)[O-])c2nc1-c1ccccc1
MIC [2]: 3.1 µM (≈ 1.07 µg/mL)
